Results as given in US20060167057A1, “Compounds for the treatment of CNS and amyloid associated diseases” (priority 2004, published 2006).

What was measured:
IAPP = molecular target: T1, IAPP (Homo sapiens, UniProt P10997); test: Electrospray MS assay for binding to IAPP; set-up: key to MS Results (IAPP binding), Water: 0 = None; conditions: 100 μM compound, 20 μM IAPP; for MS Results (IAPP binding), 20% Ethanol: pH 7.4, 20% ethanol in water; for MS Results (IAPP binding), Water: pH 7.4, aqueous solution
T1 construct: which is a 37 amino acid peptide, derived from a larger precursor peptide, called pro-IAPP
T1 sequence (P10997 34-70 limits assumed): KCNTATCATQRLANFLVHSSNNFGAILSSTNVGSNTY
From the text: The ability of a therapeutic compound of the invention to inhibit an interaction between an amyloidogenic protein and a glycoprotein or proteoglycan constituent of a basement membrane can be assessed by an in vitro binding assay, such as that described in U.S. Pat. No. 5,164,295, the contents of which are hereby incorporated by reference. Alternatively, the ability of a compound to bind to an amyloidogenic protein or to inhibit the binding of a basement membrane constituent (e.g. HSPG) to an amyloidogenic protein (e.g. Aβ) can be measured using a mass spectrometry assay where soluble protein, e.g Aβ, IAPP, β2M is incubated with the compound. A compound which binds to, e.g Aβ, will induce a change in the mass spectrum of the protein. Exemplary protocols for a mass spectrometry assay employing Aβ and IAPP can be found in the Examples, the results of which are provided in Table 5. The protocol can readily be modified to adjust the sensitivity of the data, e.g., by adjusting the amount of protein and/or compound employed. Thus, e.g., binding might be detected for test compounds noted as not having detectable binding employing less sensitive test protocols.
The binding ability between the compounds synthesized in Example 4 and IAPP in an aqueous solution is tested. The binding ability is attributed semi-quantitatively from the intensities of peptide-compound complex peaks observed in the Electrospray Mass Spectrum.
In the MS assay for IAPP, samples are prepared as both aqueous solutions and as 20% ethanol in water solutions, including 100 μM of an exemplary compound as prepared in. Example 4 and 20 μM of solubilized IAPP. The stock solution contains 30 μM IAPP and the initial pH is 3.8. Generally, IAPP precipitates out of solution at concentrations higher than 50 μM and pH higher than ˜6 as soon as a test compound is mixed with the peptide. The pH value of each sample, therefore, is adjusted to 7.4 ([…]) by addition of 0.1% aqueous sodium hydroxide. The solutions aer then analyzed by electrospray ionization mass spectrometry using a Waters ZQ 4000 mass spectrometer. Samples are introduced by direct infusion at a flow-rate of 25 μL/min within 2 hr. after sample preparation. The source temperature is kept at 70° C. and the cone voltage is 20 V for all the analysis. Data are processed using Masslynx 3.5 software. IAPP (MW 3903.4) alone at 20 μM is analyzed at pH 7.32 as a control. Sodium clusters, which are typical of this system at +3 and +4 at m/z 1301.9 and 976.7 regions, may be observed. In Table 8, a blank box means that a value was not determined for that compound in that assay.

[1] = molecular target: T2, L1 transport system (large neutral amino acid carrier, L1-system carrier) (Rattus norvegicus, UniProt Q63016); test: Competitive binding assay to the brain L1 transport system (L-[U-14C]phenylalanine on rat primary cerebrovascular endothelial cells)
T2 construct: functionality of their endogenous transporters such as the L1-system carrier; endogenous in cells; host or cells: rat primary cerebrovascular (brain microcapillary) endothelial cells, RBEC
T2 sequence (Q63016 whole entry): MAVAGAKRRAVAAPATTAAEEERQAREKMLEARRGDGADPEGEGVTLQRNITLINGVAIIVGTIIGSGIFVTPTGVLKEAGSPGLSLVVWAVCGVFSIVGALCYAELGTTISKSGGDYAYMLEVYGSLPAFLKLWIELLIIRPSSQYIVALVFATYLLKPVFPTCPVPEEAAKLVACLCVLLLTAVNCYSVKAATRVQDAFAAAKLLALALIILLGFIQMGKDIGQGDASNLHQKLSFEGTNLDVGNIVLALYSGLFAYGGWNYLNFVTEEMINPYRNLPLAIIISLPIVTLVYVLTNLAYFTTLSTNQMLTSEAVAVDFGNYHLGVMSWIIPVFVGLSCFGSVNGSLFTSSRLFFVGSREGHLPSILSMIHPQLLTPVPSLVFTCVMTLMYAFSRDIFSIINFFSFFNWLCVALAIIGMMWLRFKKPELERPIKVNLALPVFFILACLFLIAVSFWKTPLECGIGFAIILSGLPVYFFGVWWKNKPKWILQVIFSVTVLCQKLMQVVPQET
T2 sequence (Q794F9 whole entry partner): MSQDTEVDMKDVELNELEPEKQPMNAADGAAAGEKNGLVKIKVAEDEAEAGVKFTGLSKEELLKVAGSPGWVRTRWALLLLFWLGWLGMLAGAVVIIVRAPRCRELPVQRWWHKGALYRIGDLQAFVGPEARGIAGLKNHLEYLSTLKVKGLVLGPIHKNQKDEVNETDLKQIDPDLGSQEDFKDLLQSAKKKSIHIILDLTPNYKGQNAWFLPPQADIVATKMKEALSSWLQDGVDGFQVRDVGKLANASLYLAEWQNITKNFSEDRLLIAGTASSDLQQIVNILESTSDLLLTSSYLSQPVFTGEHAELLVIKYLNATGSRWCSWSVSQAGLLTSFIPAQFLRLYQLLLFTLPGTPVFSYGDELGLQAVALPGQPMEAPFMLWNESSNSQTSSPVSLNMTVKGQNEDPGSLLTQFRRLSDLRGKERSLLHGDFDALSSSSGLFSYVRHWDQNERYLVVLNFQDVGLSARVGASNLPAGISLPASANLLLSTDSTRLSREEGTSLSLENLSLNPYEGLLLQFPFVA
Method in brief: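 Cells were primary cerebral microvascular endothelial cells from cortices of 24-day-old rats, isolated by collagenase/DNAse digestion, dextran separation and mesh filtration.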

MS Results (IAPP binding), Water (IAPP)	Comparison with the Binding of Phenylalanine ([1]; 10^−4 M)	Comparison with the Binding of Phenylalanine ([1]; 10^−5 M)	Comparison with the Binding of Phenylalanine ([1]; 10^−6 M)	SMILES	further results
insoluble	–	–	–	N[C@@H](Cc1cccc(CSc2nccc(C(F)(F)F)n2)n1)C(=O)O [drawing 519]	–
+ (+ = Weak (15-30% of free peptide))	–	–	–	N[C@@H](Cc1cccc(CSc2nnc(-c3ccccc3)[nH]2)c1)C(=O)O [drawing 511]	–
–	–	–	–	COc1ccc(-n2nnnc2SCc2cccc(C[C@H](N)C(=O)O)c2)cc1 [drawing 508]	MS Results (IAPP binding), 20% Ethanol (IAPP): +++ (+++ = Strong (50 and higher % of free peptide))
0	–	–	–	N[C@@H](Cc1cccc(CSc2nccc(O)n2)c1)C(=O)O [drawing 517]	–
0	–	–	–	N[C@@H](Cc1cccc(CSc2nc3ccccc3[nH]2)c1)C(=O)O [drawing 510]	MS Results (IAPP binding), 20% Ethanol (IAPP): + (+ = Weak (15-30% of free peptide))
0	–	–	–	N[C@@H](Cc1cccc(CSc2ncc[nH]2)c1)C(=O)O	–
0	–	–	–	N[C@@H](Cc1cccc(CS(=O)(=O)c2ncc[nH]2)c1)C(=O)O [drawing 527]	–
0	–	–	–	N[C@@H](Cc1cccc(CS(=O)(=O)c2nc3ccccc3[nH]2)n1)C(=O)O [drawing 514]	–
–	0 (X < 0 Rank 0)	1 (0 < X < 10 Rank 1)	0 (X < 0 Rank 0)	NC(=O)C(N)Cc1cccc(CSc2cncc3c(C(F)(F)F)cccc23)n1 (stereo not drawn) [Compound 25]	–
+ (+ = Weak (15-30% of free peptide))	–	–	–	N[C@@H](Cc1cccc(CSc2nnc(-c3ccncc3)[nH]2)c1)C(=O)O [drawing 528]	–
–	–	–	–	COc1ccc(-n2nnnc2SCc2cccc(C[C@H](N)C(=O)O)c2)cc1 [drawing 467]	Status of Binding ([1]; compounds of Example 4, 10^−6, 10^−5 and 10^−4, Δ versus phenylalanine): 3 (3: Δ > 10%, significantly higher binding affinity than phenylalanine)
–	1 (0 < X < 10 Rank 1)	3 (X > 20 Rank 3)	2 (10 < X < 20 Rank 2)	NC(=O)C(Cc1cccc(CSc2nnc(-c3ccncc3)o2)c1)NC(=O)NC(c1ccccc1)c1ccccc1 (stereo not drawn) [Compound 55]	–
–	0 (X < 0 Rank 0)	0 (X < 0 Rank 0)	2 (10 < X < 20 Rank 2)	Cc1ccnc(SCc2ccc(-c3ccc(CC(N)C(=O)O)cc3)cc2)n1 (stereo not drawn) [Compound 151]	–
–	3 (X > 20 Rank 3)	3 (X > 20 Rank 3)	3 (X > 20 Rank 3)	NC(Cc1cccc(CSc2nc3ccccc3[nH]2)n1)C(=O)O (stereo not drawn) [Compound 27]	–
–	2 (10 < X < 20 Rank 2)	3 (X > 20 Rank 3)	2 (10 < X < 20 Rank 2)	NC(Cc1ccc(-c2ccc(CSc3ncccn3)cc2)cc1)C(=O)O (stereo not drawn) [Compound 95]	–
–	2 (10 < X < 20 Rank 2)	3 (X > 20 Rank 3)	3 (X > 20 Rank 3)	CCOC(=O)c1cnc(SCc2cccc(CC(N)C(=O)O)n2)[nH]c1=O (stereo not drawn) [Compound 146]	–

SMILES	MS Results (IAPP binding), Water (IAPP)	Comparison with the Binding of Phenylalanine ([1]; 10^−4 M)	Comparison with the Binding of Phenylalanine ([1]; 10^−5 M)	Comparison with the Binding of Phenylalanine ([1]; 10^−6 M)	further results
N[C@@H](Cc1cccc(C[S+]([O-])c2nnnn2-c2ccccc2)c1)C(=O)O (stereo partly drawn) [drawing 518]	++ (++ = Moderate (30-50% of free peptide))	–	–	–	MS Results (IAPP binding), 20% Ethanol (IAPP): ++ (++ = Moderate (30-50% of free peptide))
N[C@@H](Cc1cccc(CSc2nnc(-c3ccncc3)o2)c1)C(=O)O [drawing 524]	++ (++ = Moderate (30-50% of free peptide))	–	–	–	MS Results (IAPP binding), 20% Ethanol (IAPP): + (+ = Weak (15-30% of free peptide))
